Data on 14 compounds can be found in PubChem BioAssay (NCI).

Test in all cases: NCI tumour cell line growth inhibition, 48 h
For test [1], the system named is U251 CNS.
Test [2] deals with SK-MEL-28 melanoma.
For test [3], the system named is PC-3 prostate.
Test [4] has as its system MOLT-4 leukemia.
In test [5] the test system is TK-10 renal.
Test [6] relates to SNB-19 CNS.
For test [7], the system named is HCT-116 colon.
The subject of test [8] is KM12 colon.
For test [9], the system named is NCI-H460 lung.
The subject of test [10] is HOP-92 NSCLC.

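Dose response: 5 concentrations. Exposure: 48 h. Format: 96-well plates. Endpoint: linear interpolation; highest concentration if not reached. GI50: concentration for 50% inhibition of growth. TGI: concentration producing complete growth inhibition.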

On to `O=C1CC[C@@]23CC(=O)O[C@@H]2CCCC3C1` (some centres undefined), for which the TGI in test [1], in test [2], in [3], in test [4], in test [5] and in test [6] was more than 100 µM each time. Further, the TGI in test [7], in test [8] and in [9] was more than 100 µM throughout.

As to `CC(C)=CCc1c(O)cc2oc(-c3ccc(O)cc3O)cc(=O)c2c1O`, the TGI in test [10] was more than 88.6 µM; in [1] it was more than 100 µM; in test [2], 87.8 µM; in test [3], 98.2 µM; in test [5] it was 69.7 µM; in test [6], more than 100 µM. The results for the TGI in test [7], in [8] and in test [9] were 61.1 µM, 50.8 µM and more than 100 µM, respectively.

With `CC(C)=C/C(CC(O)(C(F)(F)F)C(F)(F)F)=N\O`, the TGI in test [10], in test [1], in [2], in test [4], in test [5] and in test [6] was more than 100 µM in each case. In addition, the TGI in test [7], in test [8] and in test [9] was more than 100 µM throughout.

With `Nc1c(N2CCOCC2)c(=O)nc2[nH]/c(=C\c3ccccc3O)c(=O)n12`, the TGI in test [10], in test [1], in test [2], in [4], in test [5] and in test [6] was more than 100 µM in each case. Besides, the TGI in [7], in test [8] and in test [9] was more than 100 µM each time.

On to `O=C1c2cc3c(cc2-c2c1c1ccc(Cl)cc1c(=O)n2CCCn1ccnc1)OCO3`, for which the GI50 in [10] was 0.0229 µM; in [1] it was less than 0.01 µM; in [2], 0.158 µM; in test [3] it was 0.0438 µM; in [4], less than 0.01 µM; in test [5] it was 0.54 µM. Besides, the GI50 in [7] and in [9] was less than 0.01 µM each time. Further, the TGI in test [10] was 0.491 µM; in test [1] it was 11.3 µM; in [2] it was more than 100 µM; in [3] it was more than 100 µM; in test [4], 1.17 µM; in [5] it was more than 100 µM. Also, the TGI in test [7] is 11 µM; in [9], 10.3 µM.

As for `C=C1[C@@H]2CCC3[C@]4(C)C(CC[C@@]5(C)C(=O)O[C@H](O)[C@@H]45)[C@H](O)[C@]3(C2)[C@H]1OC1OC(CO)C(O)C(O)C1O` (some centres undefined), the TGI in [1], in test [2], in [3], in [4], in test [5] and in test [6] was more than 50 µM in each case. For the same compound, the TGI in test [7], in test [8] and in test [9] was more than 50 µM each time.

For the compound `O=C([C@H](O)[C@@H](O)c1cccc(Cl)c1)C12CC3CC(CC(C3)C1)C2`, the TGI was 2.98 µM in test [1]; 12.6 µM in test [2]; 4.05 µM in [3]; more than 100 µM in test [4]; 3.69 µM in [5]; 4.07 µM in [6]. For the same compound, the TGI was determined as 6.79 µM in [7] and 6.01 µM in [8].

For `CCC1(CC)C(=O)N(C(=O)c2cc(OC)c(OC)c(OC)c2)N(C(=O)c2cc(OC)c(OC)c(OC)c2)C1=O`, the TGI in test [1], in [2], in [3], in test [5], in test [6] and in [7] was more than 50 µM throughout. The TGI in test [8] and in test [9] was more than 50 µM in each case.

As to `CCOC(=O)c1c(SCc2cc(=O)[nH]c(=O)[nH]2)n(-c2ccccc2)c(=S)n(-c2ccccc2)c1=O`, the TGI in [1], in test [2], in test [3], in [4], in test [5] and in test [6] was more than 100 µM throughout. Further, the TGI in test [7], in test [8] and in test [9] was more than 100 µM in each case.

With `C=C(C)[C@H]1CC23C(=O)[C@@](C)(C[C@H]2C1(C)C)C(=O)C(C(=O)C(C)C)=C3O`, the TGI was found to be 39.7 µM in test [1]; 28.6 µM in test [2]; 33 µM in test [3]; 19 µM in [4]; 53.3 µM in test [5]; 69.7 µM in test [6]. For the same compound, the TGI in test [8] came to 41.1 µM; in [9], 45.3 µM.

In the case of `CCOC(=O)c1csc(NC(=O)CCN2CCN(C)CC2)n1`, the TGI in test [10], in [1], in test [2], in test [3], in test [4] and in [5] was more than 100 µM in each case. For the same compound, the TGI in [6], in [8] and in [9] was more than 100 µM in each case.

Consider `CN1C2=Nc3n(c4ccccc4[n+]3C)CN2c2ccccc21`, for which the TGI is 81.1 µM in [10]; more than 100 µM in test [1]; more than 100 µM in test [3]; more than 100 µM in [4]; more than 100 µM in [5]; more than 100 µM in test [6]. Further, the results for the TGI in test [7], in test [8] and in [9] were more than 100 µM, 46.8 µM and more than 100 µM, respectively.

For the compound `CCCn1cc2c3c(cccc31)C1C=C(C)CN(C)C1C2` (centres undefined), the TGI in test [10] amounted to 37.9 µM; in [1], 52 µM; in test [2], 49.9 µM; in test [4], 40.2 µM; in test [6], 62.1 µM; in test [7], 38.5 µM. Also, the TGI came to 58 µM in [8] and 36.6 µM in test [9].

For `O=[N+]([O-])c1ccc(-c2csc(=[N+]3CCCCC3)s2)cc1`, the TGI in test [10] is 64.9 µM; in [1], more than 20.8 µM; in test [2], more than 100 µM; in test [4], more than 60.9 µM; in [5], more than 100 µM; in test [6] it was more than 100 µM. The TGI in test [7], in test [8] and in test [9] was more than 100 µM in each case.
